{"source": "patent US4962020A", "about": "“DNA sequencing” (President and Fellows of Harvard College, priority 1988, dated 1990)", "key": {"DNA polymerase": {"system": "DNA polymerase", "assay": "ddNTP versus dNTP incorporation (discrimination) in primer extension / sequencing reaction with metal ions", "format": "biochemical", "settings": "for effect of cation on DNA synthesis / sequencing reaction: monovalent and divalent cations tested", "experimental": "In order to determine whether any particular DNA polymerase, in combination with any particular chain terminating agent, or other component of a sequencing reaction mixture, is useful in this invention, a standard sequencing reaction is performed, as described below and shown in the drawings, and the extent of band formation, and the uniformity of nearby bands in a sequencing gel, reviewed. […] Adjacent band uniformity within a two-fold or less range is useful in this invention, preferably the uniformity is within a 1.0-1.5 fold range. Similarly, determination of optimum cation concentration, or of other potential cations useful in the invention, is determined by use of this sequencing reaction under various conditions. For example, cations are tested in ranges from 0.005-100 mM. An example of such an experiment follows:\nDNA synthesis is measured using a 17-mer primer of sequence 5'-[…]-3' (New England Biolabs catalog number 1211) that has been labeled with ^32 P at its 5' end and annealed to single-stranded mGPl-2 DNA. Tabor et al., proc. Nat. Acad. Sci. USA 84:4767 (1987) and Tabor et al., J. Biol. Chem. 262:16212 (1987). Any other template is equally useful in this reaction. This primer-template is used in a reaction that contains a DNA polymerase in the presence of a range of concentrations of a metal ion. Reactions are carried out in the presence of a given concentration of all 4 deoxynucleotides (dNTPS, 20-200 μM), and over a range of concentrations of one dideoxynucleotide (ddNTP, in this example, ddGTP from 10-500 μM). The DNA products are then analyzed by polyacrylamide gel electrophoresis, where DNA synthesis is detected as extensions of the primer producing bands, representing extensions of various molecular weights, in the gel.\nIn a specific example, each reaction mixture (10μl) contained 0.1 μg^32 P-primer-template, 40 mM Tris-HCl pH 7.5, 5 mM dithiothreitol (DTT) 5μM to 20mM metal ion, 10 to 500 μM 4dNTPs, 1 to 500 μM ddNTPs, and 2 units of a DNA polymerase. Incubation was at 37° C. for 15 min. The reaction was stopped by addition of 10μl of 90% formamide, 50 mM EDTA, and 0.1% bromophenol blue.\nElectrophoresis was at 2000 volts for 2 hours. The gel was fixed in 50% methanol, 10% acetic acid for 30 min., dried, and exposed, for autoradiography. Band intensity in each lane of the resulting film was determined by scanning each lane with a densitometer. The densitometer used was a double-beam recording instrument, model MkIIIC (Joyce, Loebl & Co., Ltd., Gateshead-on-tyne, II, England). Any suitable densitometer instrument for scanning gels will also work. Alternatively, the uniformity of the resulting bands can be determined by scanning the DNA products as they are electrophoresed within the gel.\nThe ability to incorporate a given ddNTP compared to the corresponding dNTP for any one enzyme is measured as the ratio of ddNTP to dNTP necessary to allow DNA synthesis that terminates in a fixed range, detected as producing bands of no greater than a fixed molecular weight. That is, the bands produced in the reaction end within a specified range in the sequencing gel. Thus, if one enzyme discriminates 1000-fold greater against a given ddNTP compared to another enzyme, a 1000-fold higher ratio of ddNTP to dNTP will be necessary to obtain bands terminating at the corresponding sites in the same range of the gel."}, "[1]": {"target": "genetically modified T7 DNA polymerase (ΔLys118-Arg145) (Escherichia phage T7, UniProt P00581, DEL118-145)", "sequence (P00581 with tags, fused parts or gaps DEL118-145)": "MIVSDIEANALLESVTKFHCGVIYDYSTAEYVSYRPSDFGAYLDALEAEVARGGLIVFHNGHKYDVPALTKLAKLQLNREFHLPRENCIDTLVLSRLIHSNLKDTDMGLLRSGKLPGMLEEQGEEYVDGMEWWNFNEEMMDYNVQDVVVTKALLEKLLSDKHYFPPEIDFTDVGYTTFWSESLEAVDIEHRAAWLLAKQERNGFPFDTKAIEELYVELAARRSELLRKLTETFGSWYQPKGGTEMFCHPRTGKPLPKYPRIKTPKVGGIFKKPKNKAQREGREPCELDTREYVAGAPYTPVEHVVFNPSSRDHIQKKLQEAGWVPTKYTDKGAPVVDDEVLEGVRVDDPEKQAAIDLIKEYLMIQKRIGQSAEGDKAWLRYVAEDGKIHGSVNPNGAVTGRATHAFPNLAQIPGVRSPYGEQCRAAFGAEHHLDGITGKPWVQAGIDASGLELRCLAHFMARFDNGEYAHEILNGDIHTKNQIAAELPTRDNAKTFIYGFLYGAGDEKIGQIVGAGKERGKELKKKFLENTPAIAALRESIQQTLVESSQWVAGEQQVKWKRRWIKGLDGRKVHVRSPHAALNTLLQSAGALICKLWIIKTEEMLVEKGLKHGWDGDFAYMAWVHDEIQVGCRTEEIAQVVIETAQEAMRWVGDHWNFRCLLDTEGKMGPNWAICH"}, "[2]": {"target": "T1, genetically modified T7 DNA polymerase (Escherichia phage T7, UniProt P00581, DEL118-145)", "T1 construct": "made in house; host or cells: E. coli strain K38/pTrx-3/pGP5-8", "T1 sequence (P00581 other isoform, or with tags, fused parts or gaps DEL118-145)": "as the sequence (P00581 with tags, fused parts or gaps DEL118-145) above", "T1 sequence (P0AA25 2-109, stated change not applied, further chain)": "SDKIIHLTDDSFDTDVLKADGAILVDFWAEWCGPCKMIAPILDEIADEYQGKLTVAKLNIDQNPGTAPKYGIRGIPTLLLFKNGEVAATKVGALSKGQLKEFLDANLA", "format": "biochemical"}}, "note": "Read-outs that look alike come from different tables or passages of the source."}
{"compound": "[Ba]", "note": "[Ba]", "values": [{"measurement": "effect of cation on DNA synthesis / sequencing reaction", "setting": "DNA polymerase", "result": "no detectable effect, or are detrimental to DNA synthesis"}]}
{"compound": "[Be]", "note": "[Be]", "values": [{"measurement": "effect of cation on DNA synthesis / sequencing reaction", "setting": "DNA polymerase", "result": "no detectable effect, or are detrimental to DNA synthesis"}]}
{"compound": "[Ca]", "note": "[Ca]", "values": [{"measurement": "effect of cation on DNA synthesis / sequencing reaction", "setting": "DNA polymerase", "result": "no detectable effect, or are detrimental to DNA synthesis"}]}
{"compound": "[Ce]", "note": "[Ce]", "values": [{"measurement": "effect of cation on DNA synthesis / sequencing reaction", "setting": "DNA polymerase", "result": "no detectable effect, or are detrimental to DNA synthesis"}]}
{"compound": "[Co]", "note": "[Co]", "values": [{"measurement": "effect of cation on DNA synthesis / sequencing reaction", "setting": "DNA polymerase", "result": "no detectable effect, or are detrimental to DNA synthesis"}]}
{"compound": "[Cr]", "note": "[Cr]", "values": [{"measurement": "effect of cation on DNA synthesis / sequencing reaction", "setting": "DNA polymerase", "result": "no detectable effect, or are detrimental to DNA synthesis"}]}
{"compound": "[Cu]", "note": "[Cu]", "values": [{"measurement": "effect of cation on DNA synthesis / sequencing reaction", "setting": "DNA polymerase", "result": "no detectable effect, or are detrimental to DNA synthesis"}]}
{"compound": "[Na]", "note": "[Na]", "values": [{"measurement": "effect of cation on DNA synthesis / sequencing reaction", "setting": "DNA polymerase", "result": "no detectable effect, or are detrimental to DNA synthesis"}]}
{"compound": "[Ni]", "note": "[Ni]", "values": [{"measurement": "effect of cation on DNA synthesis / sequencing reaction", "setting": "DNA polymerase", "result": "no detectable effect, or are detrimental to DNA synthesis"}]}
{"compound": "[Si]", "note": "[Si]", "values": [{"measurement": "effect of cation on DNA synthesis / sequencing reaction", "setting": "DNA polymerase", "result": "no detectable effect, or are detrimental to DNA synthesis"}]}
{"compound": "[Zn]", "note": "[Zn]", "values": [{"measurement": "effect of cation on DNA synthesis / sequencing reaction", "setting": "DNA polymerase", "result": "no detectable effect, or are detrimental to DNA synthesis"}]}
{"compound": "O=c1[nH]cnc2c1ncn2[C@H]1CC[C@@H](COP(=O)(O)OP(=O)(O)OP(=O)(O)O)O1", "note": "[ddITP, dideoxy ITP, reference compound]", "values": [{"measurement": "discrimination against ddITP compared to ddGTP", "setting": "DNA polymerase; in the presence of Mn", "result": 10, "unit": "fold"}]}
{"compound": "O=C([O-])CC(C(=O)[O-])C(O)C(=O)[O-].[Na+].[Na+].[Na+]", "note": "(stereo not drawn) [isocitrate, sodium isocitrate]", "values": [{"measurement": "optimal isocitrate concentration", "setting": "[1]", "result": 40, "unit": "mM"}, {"measurement": "effect of isocitrate on polymerase activity", "setting": "[1]; 10 mM magnesium, any amount of isocitrate, FIG. 9", "result": "inhibitory effect on polymerase"}, {"measurement": "stimulation of polymerase activity", "setting": "[1]; t7 dna polymerase, 0.5 h, 40000 µM, pH 7.5", "result": 4, "unit": "fold"}]}
{"compound": "[Mg+2]", "note": "[magnesium]", "values": [{"measurement": "intensity of underlined bases in triplets versus adjacent bases", "setting": "[2]; Example 1 sample run with magnesium in place of manganese", "result": "2-5 fold"}, {"measurement": "variation of nearby band intensity", "setting": "[2]; all four ddNTPs at equal concentration, magnesium, FIG. 6", "result": "varies greatly"}, {"measurement": "variation of nearby band intensity (peak height)", "setting": "[2]; ddGTP only, magnesium instead of manganese, FIG. 3", "result": "≤ 10", "unit": "fold"}, {"measurement": "optimum ion concentration in a sequencing reaction (polymerase activity)", "setting": "[1]; absence of a chelator, FIG. 8", "result": 20, "unit": "mM"}]}
{"compound": "[Mn+2]", "note": "[manganese]", "values": [{"measurement": "difference in band intensity between bases in the triplets TCT, AAG, GCA, CCT", "setting": "[2]; Example 1, manganese in sequencing buffer, densitometer", "result": "at most 20%"}, {"measurement": "variation of nearby bands and peaks", "setting": "[2]; all four ddNTPs at 0.75 μM each, manganese, FIG. 5", "result": "no more than 1.5 fold"}, {"measurement": "optimum ion concentration in a sequencing reaction (polymerase activity)", "setting": "[1]", "result": 1, "unit": "mM"}, {"measurement": "optimum manganese concentration", "setting": "[1]", "result": "5 to 20", "unit": "mM"}]}
{"compound": "Taq polymerase: DNA polymerase used for sequencing", "values": [{"measurement": "lessening of the requirement for chain terminating agents (dideoxynucleosides)", "setting": "DNA polymerase; in the presence of manganese or iron ions", "result": "~1000", "unit": "fold"}]}
